Data as given in patent publication US12077503B2, “Substituted cyclic amides and their use as herbicides” (FMC CORPORATION, priority 2015, dated 2024).

Legend:
Assay in all cases: Test D preemergence
Format in all cases: in vivo
Details in all cases: scale 0 to 100
[1] = test system: oilseed rape (Brassica napus)
Procedure, shortened: (§1)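 Seeds of the weed and crop species were sown in silt loam soil and treated preemergence with compounds formulated in a non-phytotoxic solvent mixture containing surfactant. After about 21 d in a controlled growth environment, plants were visually rated against untreated controls on a 0–100 scale (0 = no effect, 100 = complete control).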

[2] = test system: pigweed (Amaranthus retroflexus)
Procedure, shortened: as §1

[3] = test system: radish, wild (wild radish, Raphanus raphanistrum)
Procedure, shortened: as §1

[4] = test system: deadnettle (henbit deadnettle, Lamium amplexicaule)
Procedure, shortened: as §1

[5] = test system: lambsquarters (Chenopodium album)
Procedure, shortened: as §1

[6] = test system: bluegrass (annual bluegrass, Poa annua)
Procedure, shortened: as §1

[7] = test system: chamomile (scentless chamomile, Matricaria inodora)
Procedure, shortened: as §1

Kochia (Kochia scoparia) = test system: Kochia (Kochia scoparia)
Procedure, shortened: as §1

[8] = test system: wheat, winter (winter wheat, Triticum aestivum)
Procedure, shortened: as §1

[9] = test system: windgrass (Apera spica-venti)
Procedure, shortened: as §1

[10] = test system: barley, spring (spring barley, Hordeum vulgare)
Procedure, shortened: as §1

[11] = test system: Russian thistle (Salsola kali)
Procedure, shortened: as §1

[12] = test system: chickweed (common chickweed, Stellaria media)
Procedure, shortened: as §1

[13] = test system: oat, wild (wild oat, Avena fatua)
Procedure, shortened: as §1

[14] = test system: canarygrass (littleseed canarygrass, Phalaris minor)
Procedure, shortened: as §1

[15] = test system: mustard, wild (wild mustard, Sinapis arvensis)
Procedure, shortened: as §1

[16] = test system: barley, winter (winter barley Hordeum vulgare)
Procedure, shortened: as §1

[17] = test system: foxtail, green (green foxtail, Setaria viridis)
Procedure, shortened: as §1

[18] = test system: Galium (catchweed bedstraw, Galium aparine)
Procedure, shortened: as §1

[19] = test system: bromegrass, downy (downy bromegrass, Bromus tectorum)
Procedure, shortened: as §1

[20] = test system: field violet (Viola arvensis)
Procedure, shortened: as §1

[21] = test system: ryegrass, Italian (Italian ryegrass, Lolium multiflorum)
Procedure, shortened: as §1

## CN1CC(c2ccc(C(F)(F)F)cc2)C(C(=O)Nc2ccccc2S(C)(=O)=O)C1=O (stereo not shown) [Compound 624]
[1]; 31 g ai/ha
  Plant response rating: Oilseed Rape: 0
[1]; 62 g ai/ha
  Plant response rating: Oilseed Rape: 25
[1]; 125 g ai/ha
  Plant response rating: Oilseed Rape: 35
[1]; 250 g ai/ha
  Plant response rating: Oilseed Rape: 65
[2]; 31 g ai/ha
  Plant response rating: Pigweed: 35
[2]; 62 g ai/ha
  Plant response rating: Pigweed: 80
[2]; 125 g ai/ha
  Plant response rating: Pigweed: 95
[2]; 250 g ai/ha
  Plant response rating: Pigweed: 98
[3]; 31 g ai/ha
  Plant response rating: Radish, Wild: 0
[3]; 125 g ai/ha
  Plant response rating: Radish, Wild: 0
[3]; 250 g ai/ha
  Plant response rating: Radish, Wild: 75
[4]; 31 g ai/ha
  Plant response rating: Deadnettle: 0
[4]; 62 g ai/ha
  Plant response rating: Deadnettle: 0
[4]; 125 g ai/ha
  Plant response rating: Deadnettle: 25
[4]; 250 g ai/ha
  Plant response rating: Deadnettle: 70
[5]; 31 g ai/ha
  Plant response rating: Lambsquarters: 0
[5]; 62 g ai/ha
  Plant response rating: Lambsquarters: 70
[5]; 125 g ai/ha
  Plant response rating: Lambsquarters: 35
[5]; 250 g ai/ha
  Plant response rating: Lambsquarters: 60
[6]; 31 g ai/ha
  Plant response rating: Bluegrass: 10
[6]; 62 g ai/ha
  Plant response rating: Bluegrass: 25
[6]; 125 g ai/ha
  Plant response rating: Bluegrass: 55
[6]; 250 g ai/ha
  Plant response rating: Bluegrass: 65
[7]; 31 g ai/ha
  Plant response rating: Chamomile: 0
[7]; 62 g ai/ha
  Plant response rating: Chamomile: 95
[7]; 125 g ai/ha
  Plant response rating: Chamomile: 90
[7]; 250 g ai/ha
  Plant response rating: Chamomile: 100
Kochia (Kochia scoparia); 31 g ai/ha
  Plant response rating: Kochia: 0
Kochia (Kochia scoparia); 62 g ai/ha
  Plant response rating: Kochia: 5
Kochia (Kochia scoparia); 125 g ai/ha
  Plant response rating: Kochia: 15
Kochia (Kochia scoparia); 250 g ai/ha
  Plant response rating: Kochia: 85
[8]; 31 g ai/ha
  Plant response rating: Wheat, Winter: 0
[8]; 62 g ai/ha
  Plant response rating: Wheat, Winter: 0
[8]; 125 g ai/ha
  Plant response rating: Wheat, Winter: 5
[8]; 250 g ai/ha
  Plant response rating: Wheat, Winter: 10
[9]; 31 g ai/ha
  Plant response rating: Windgrass: 15
[9]; 62 g ai/ha
  Plant response rating: Windgrass: 25
[9]; 125 g ai/ha
  Plant response rating: Windgrass: 85
[9]; 250 g ai/ha
  Plant response rating: Windgrass: 95
[10]; 31 g ai/ha
  Plant response rating: Barley, Spring: 0
[10]; 62 g ai/ha
  Plant response rating: Barley, Spring: 0
[10]; 125 g ai/ha
  Plant response rating: Barley, Spring: 5
[10]; 250 g ai/ha
  Plant response rating: Barley, Spring: 40
[11]; 31 g ai/ha
  Plant response rating: Russian Thistle: 0
[11]; 62 g ai/ha
  Plant response rating: Russian Thistle: 30
[11]; 125 g ai/ha
  Plant response rating: Russian Thistle: 10
[11]; 250 g ai/ha
  Plant response rating: Russian Thistle: 50
[12]; 31 g ai/ha
  Plant response rating: Chickweed: 15
[12]; 125 g ai/ha
  Plant response rating: Chickweed: 60
[12]; 250 g ai/ha
  Plant response rating: Chickweed: 85
[13]; 31 g ai/ha
  Plant response rating: Oat, Wild: 0
[13]; 62 g ai/ha
  Plant response rating: Oat, Wild: 5
[13]; 125 g ai/ha
  Plant response rating: Oat, Wild: 15
[13]; 250 g ai/ha
  Plant response rating: Oat, Wild: 35
[14]; 31 g ai/ha
  Plant response rating: Canarygrass: 0
[14]; 62 g ai/ha
  Plant response rating: Canarygrass: 15
[14]; 125 g ai/ha
  Plant response rating: Canarygrass: 25
[14]; 250 g ai/ha
  Plant response rating: Canarygrass: 45
[15]; 31 g ai/ha
  Plant response rating: Mustard, Wild: 15
[15]; 62 g ai/ha
  Plant response rating: Mustard, Wild: 30
[15]; 250 g ai/ha
  Plant response rating: Mustard, Wild: 70
[16]; 31 g ai/ha
  Plant response rating: Barley, Winter: 0
[16]; 62 g ai/ha
  Plant response rating: Barley, Winter: 0
[16]; 125 g ai/ha
  Plant response rating: Barley, Winter: 0
[16]; 250 g ai/ha
  Plant response rating: Barley, Winter: 40
[17]; 31 g ai/ha
  Plant response rating: Foxtail, Green: 40
[17]; 62 g ai/ha
  Plant response rating: Foxtail, Green: 50
[17]; 125 g ai/ha
  Plant response rating: Foxtail, Green: 90
[17]; 250 g ai/ha
  Plant response rating: Foxtail, Green: 95
[18]; 31 g ai/ha
  Plant response rating: Galium: 0
[18]; 62 g ai/ha
  Plant response rating: Galium: 0
[18]; 125 g ai/ha
  Plant response rating: Galium: 0
[18]; 250 g ai/ha
  Plant response rating: Galium: 0
[19]; 31 g ai/ha
  Plant response rating: Bromegrass, Downy: 0
[19]; 62 g ai/ha
  Plant response rating: Bromegrass, Downy: 10
[19]; 125 g ai/ha
  Plant response rating: Bromegrass, Downy: 20
[19]; 250 g ai/ha
  Plant response rating: Bromegrass, Downy: 20
[20]; 31 g ai/ha
  Plant response rating: Field Violet: 10
[20]; 62 g ai/ha
  Plant response rating: Field Violet: 10
[20]; 125 g ai/ha
  Plant response rating: Field Violet: 10
[20]; 250 g ai/ha
  Plant response rating: Field Violet: 10
[21]; 31 g ai/ha
  Plant response rating: Ryegrass, Italian: 0
[21]; 62 g ai/ha
  Plant response rating: Ryegrass, Italian: 0
[21]; 125 g ai/ha
  Plant response rating: Ryegrass, Italian: 25
[21]; 250 g ai/ha
  Plant response rating: Ryegrass, Italian: 25
